What was measured:
[1] = Inhibition of IL-2 stimulated IFN-gamma production in BALB/c mouse at 40 mg/kg, po pretreated for 30 mins followed by IL-2 stimulation and measured after 4 hrs by ELISA; type: functional; conditions: time 4.5 hrs
[2] = target: T1, Tyrosine-protein kinase JAK2 (Homo sapiens, UniProt O60674); test: Inhibition of JAK2 signaling pathway in human CHEP cells assessed as inhibition of EPO-induced cell survival preincubated for 1 hr followed by EPO addition and measured after 48 hrs by CellTiter-Glo luminescent assay; type: toxicity, cell-based
[3] = Inhibition of IL-2 stimulated IFN-gamma production in BALB/c mouse at 5 mg/kg, po pretreated for 30 mins followed by IL-2 stimulation and measured after 4 hrs by ELISA; type: functional; conditions: time 4.5 hrs
Cytochrome P450 3A4 [4] = target: T2, Cytochrome P450 3A4 (Homo sapiens, UniProt P08684); test: Inhibition of CYP3A4 (unknown origin) in absence of NADPH; type: ADME
Cytochrome P450 3A4 [5] = target: T2, Cytochrome P450 3A4; test: Inhibition of CYP3A4 (unknown origin) in presence of NADPH; type: ADME
Cytochrome P450 1A2 = target: T3, Cytochrome P450 1A2 (Homo sapiens, UniProt P05177); test: Inhibition of CYP1A2 (unknown origin); type: ADME
T3 sequence (P05177 whole entry): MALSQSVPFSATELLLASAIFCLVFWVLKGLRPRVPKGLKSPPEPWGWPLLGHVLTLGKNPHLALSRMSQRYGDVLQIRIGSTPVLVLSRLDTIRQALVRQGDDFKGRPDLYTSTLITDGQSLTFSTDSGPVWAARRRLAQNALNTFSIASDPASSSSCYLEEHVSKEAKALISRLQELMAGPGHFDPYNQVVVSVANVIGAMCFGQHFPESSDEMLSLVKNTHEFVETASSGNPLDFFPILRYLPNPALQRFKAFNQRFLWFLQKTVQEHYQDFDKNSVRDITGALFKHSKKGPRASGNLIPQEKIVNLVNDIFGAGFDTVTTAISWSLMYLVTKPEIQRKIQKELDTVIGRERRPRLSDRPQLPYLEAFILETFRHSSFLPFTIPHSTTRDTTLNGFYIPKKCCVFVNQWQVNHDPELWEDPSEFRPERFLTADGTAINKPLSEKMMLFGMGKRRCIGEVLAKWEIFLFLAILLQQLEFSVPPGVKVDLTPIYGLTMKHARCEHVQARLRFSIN

Homo sapiens = organism: Homo sapiens; test: Selectivity ratio of IC50 for inhibition of JAK2 signaling pathway in EPO-stimulated human CHEP cells to IC50 for inhibition of JAK1/JAK3 in human primary T-cells assessed as reduction of IL-2 stimulated STAT5 phosphorylation
[6] = target: Tyrosine-protein kinase SYK (Homo sapiens, UniProt P43405); test: Inhibition of human full length recombinant N-terminal GST-tagged SYK expressed in baculovirus expression system at 250 nM by Z'-lyte assay
JAK3/JAK1 [7] = target: T4, JAK3/JAK1 (Homo sapiens, UniProt P23458+P52333); test: Inhibition of JAK1/JAK3 in human primary T-cells assessed as reduction of IL-2 stimulated STAT5 phosphorylation preincubated for 1 hr followed by IL-2 stimulation for 15 mins by FACS method; type: cell-based, T-cell
[8] = Plasma protein binding in rat; type: ADME, cell-free; conditions: read-out: PPB (converted)
[9] = Plasma protein binding in human; type: ADME, cell-free; conditions: read-out: PPB (converted)
[10] = Oral bioavailability in Sprague-Dawley rat 5 mg/kg; type: ADME, organism-based; conditions: in vivo
[11] = AUC in Sprague-Dawley rat 5 mg/kg, po; type: ADME, organism-based; set-up: dose 5 mg/kg, route po; conditions: in vivo
Rattus norvegicus [12] = test: Antiarthritic activity against collagen-induced arthritis Lewis rat model assessed as reduction in disease severity by measuring inhibition of hind limb clinical score at 50 mg/kg, po bid measured upto 20 days; type: functional; conditions: 480 h, time <= 20 day
Rattus norvegicus [13] = test: Antiarthritic activity against collagen-induced arthritis Lewis rat model assessed as reduction in disease severity by measuring inhibition of hind limb clinical score at 100 mg/kg, po qd measured upto 20 days; type: functional; conditions: 480 h, time <= 20 day
Rattus norvegicus [14] = test: Antiarthritic activity against collagen-induced arthritis Lewis rat model assessed as reduction in disease severity by measuring inhibition of hind limb clinical score at 25 mg/kg, po bid measured upto 20 days; type: functional; conditions: 480 h, time <= 20 day
[15] = target: Tyrosine-protein kinase JAK1 (Homo sapiens, UniProt P23458); test: Inhibition of human recombinant GST-tagged JAK1 catalytic domain (866 to 1154 residues) expressed in baculovirus expression system by Z'-lyte assay
[16] = target: T1, Tyrosine-protein kinase JAK2; test: Inhibition of human recombinant GST-tagged JAK2 catalytic domain (809 to 1153 residues) expressed in baculovirus expression system by Z'-lyte assay; type: toxicity
[17] = target: T5, Tyrosine-protein kinase JAK3 (Homo sapiens, UniProt P52333); test: Inhibition of human recombinant GST-tagged JAK3 catalytic domain (781 to 1124 residues) expressed in baculovirus expression system by Z'-lyte assay
T5 sequence (P52333 whole entry): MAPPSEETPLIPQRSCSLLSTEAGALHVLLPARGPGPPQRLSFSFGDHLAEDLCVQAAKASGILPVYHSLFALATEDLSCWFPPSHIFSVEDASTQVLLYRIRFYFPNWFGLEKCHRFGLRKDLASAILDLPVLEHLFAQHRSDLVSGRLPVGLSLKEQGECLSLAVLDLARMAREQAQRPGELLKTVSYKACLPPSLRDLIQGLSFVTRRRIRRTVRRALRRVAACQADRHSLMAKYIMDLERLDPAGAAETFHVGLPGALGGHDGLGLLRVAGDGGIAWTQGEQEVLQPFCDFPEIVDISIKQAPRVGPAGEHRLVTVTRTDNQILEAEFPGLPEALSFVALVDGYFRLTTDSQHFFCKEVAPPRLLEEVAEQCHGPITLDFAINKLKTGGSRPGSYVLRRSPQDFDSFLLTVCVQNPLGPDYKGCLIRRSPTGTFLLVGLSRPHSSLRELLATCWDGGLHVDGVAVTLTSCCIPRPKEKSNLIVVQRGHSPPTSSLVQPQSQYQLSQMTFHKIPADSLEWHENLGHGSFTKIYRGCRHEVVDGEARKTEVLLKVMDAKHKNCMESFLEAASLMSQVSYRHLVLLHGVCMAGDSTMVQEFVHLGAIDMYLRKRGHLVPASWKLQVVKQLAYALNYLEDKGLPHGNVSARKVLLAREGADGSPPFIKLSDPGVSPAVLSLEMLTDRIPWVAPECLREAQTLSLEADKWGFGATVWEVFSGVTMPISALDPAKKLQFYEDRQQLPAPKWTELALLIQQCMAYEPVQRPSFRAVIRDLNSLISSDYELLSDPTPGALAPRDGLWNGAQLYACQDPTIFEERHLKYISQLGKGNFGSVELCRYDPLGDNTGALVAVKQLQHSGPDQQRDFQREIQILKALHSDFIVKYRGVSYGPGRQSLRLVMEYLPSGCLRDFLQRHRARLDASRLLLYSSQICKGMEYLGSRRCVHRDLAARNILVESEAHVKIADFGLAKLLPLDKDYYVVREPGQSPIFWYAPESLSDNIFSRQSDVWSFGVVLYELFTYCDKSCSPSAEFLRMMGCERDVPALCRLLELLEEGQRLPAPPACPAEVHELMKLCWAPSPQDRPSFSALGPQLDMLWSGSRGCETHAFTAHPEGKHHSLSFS

[18] = target: Non-receptor tyrosine-protein kinase TYK2 (Homo sapiens, UniProt P29597); test: Inhibition of human recombinant N-terminal GST-tagged TYK2 (833 to 1187 residues) expressed in baculovirus expression system by Z'-lyte assay
JAK3/JAK1 [19] = target: T4, JAK3/JAK1; test: Inhibition of JAK1/JAK3 signaling pathway in human primary T-cells assessed as reduction of IL-2 induced cell proliferation; type: cell-based
JAK1/TYK2 = JAK1/TYK2 (Homo sapiens, UniProt P23458+P29597); test: Inhibition of JAK1/TYK2 signaling pathway in human primary T-cells assessed as reduction of IFN-alpha induced STAT1 phosphorylation; type: cell-based, T-cell
[20] = target: T1, Tyrosine-protein kinase JAK2; test: Inhibition of JAK2 signaling pathway in human UKE-1 cells assessed as reduction of cell proliferation; type: toxicity, cell-based
JAK2/TYK2 = JAK2/TYK2 (Homo sapiens, UniProt O60674+P29597); test: Inhibition of JAK2/TYK2 signaling pathway in human primary T-cells assessed as reduction of IL-12 induced STAT4 phosphorylation; type: cell-based, T-cell
JAK2/JAK1 = JAK2/JAK1 (Homo sapiens, UniProt O60674+P23458); test: Inhibition of JAK1/JAK2 signaling pathway in human U-937 cells assessed as reduction of IFN-gamma induced ICAM1 expression; type: cell-based
[21] = Inhibition of IL-2 stimulated IFN-gamma production in BALB/c mouse at 20 mg/kg, po pretreated for 30 mins followed by IL-2 stimulation and measured after 4 hrs by ELISA; type: functional; conditions: time 4.5 hrs
[22] = Inhibition of IL-2 stimulated IFN-gamma production in BALB/c mouse at 10 mg/kg, po pretreated for 30 mins followed by IL-2 stimulation and measured after 4 hrs by ELISA; type: functional; conditions: time 4.5 hrs
[23] = Inhibition of IL-2 stimulated IFN-gamma production in BALB/c mouse at 2.5 mg/kg, po pretreated for 30 mins followed by IL-2 stimulation and measured after 4 hrs by ELISA; type: functional; conditions: time 4.5 hrs
[24] = Clearance in Sprague-Dawley rat 1 mg/kg, iv; type: ADME, organism-based; conditions: in vivo
JAK3/JAK1 [25] = target: T4, JAK3/JAK1; test: Inhibition of JAK1/JAK3 signaling pathway in human whole blood assessed as reduction of IL-2 induced STAT5 phosphorylation; type: tissue-based

T1 sequence (O60674 whole entry): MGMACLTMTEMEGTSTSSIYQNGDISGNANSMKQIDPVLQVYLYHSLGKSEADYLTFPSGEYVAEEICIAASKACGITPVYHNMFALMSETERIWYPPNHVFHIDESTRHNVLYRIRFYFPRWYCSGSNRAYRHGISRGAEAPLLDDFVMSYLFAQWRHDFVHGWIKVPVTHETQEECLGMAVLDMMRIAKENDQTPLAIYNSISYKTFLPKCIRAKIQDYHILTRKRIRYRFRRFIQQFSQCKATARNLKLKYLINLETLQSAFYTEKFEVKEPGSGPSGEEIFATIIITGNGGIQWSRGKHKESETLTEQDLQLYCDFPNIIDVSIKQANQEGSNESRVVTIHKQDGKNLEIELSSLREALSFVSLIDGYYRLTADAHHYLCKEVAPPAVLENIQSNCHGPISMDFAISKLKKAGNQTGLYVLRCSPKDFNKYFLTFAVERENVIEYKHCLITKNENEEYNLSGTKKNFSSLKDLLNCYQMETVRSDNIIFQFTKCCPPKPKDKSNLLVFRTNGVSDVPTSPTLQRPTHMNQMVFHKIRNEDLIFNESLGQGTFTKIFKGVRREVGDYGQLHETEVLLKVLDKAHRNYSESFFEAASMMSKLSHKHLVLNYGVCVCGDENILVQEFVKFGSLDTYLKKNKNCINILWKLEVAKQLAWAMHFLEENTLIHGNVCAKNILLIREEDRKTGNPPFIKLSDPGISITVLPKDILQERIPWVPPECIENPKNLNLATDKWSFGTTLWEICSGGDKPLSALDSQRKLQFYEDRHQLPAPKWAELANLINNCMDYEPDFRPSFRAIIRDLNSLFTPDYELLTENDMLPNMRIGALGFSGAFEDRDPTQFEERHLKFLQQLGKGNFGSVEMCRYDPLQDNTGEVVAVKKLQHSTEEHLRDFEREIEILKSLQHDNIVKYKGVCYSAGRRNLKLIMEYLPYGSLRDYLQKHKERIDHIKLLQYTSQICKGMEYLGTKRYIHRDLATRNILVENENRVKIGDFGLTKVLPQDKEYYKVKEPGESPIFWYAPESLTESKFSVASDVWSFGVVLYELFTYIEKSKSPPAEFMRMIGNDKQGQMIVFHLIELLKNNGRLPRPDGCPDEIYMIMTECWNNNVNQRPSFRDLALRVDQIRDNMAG
T4 sequence (P23458 whole entry, one chain of several): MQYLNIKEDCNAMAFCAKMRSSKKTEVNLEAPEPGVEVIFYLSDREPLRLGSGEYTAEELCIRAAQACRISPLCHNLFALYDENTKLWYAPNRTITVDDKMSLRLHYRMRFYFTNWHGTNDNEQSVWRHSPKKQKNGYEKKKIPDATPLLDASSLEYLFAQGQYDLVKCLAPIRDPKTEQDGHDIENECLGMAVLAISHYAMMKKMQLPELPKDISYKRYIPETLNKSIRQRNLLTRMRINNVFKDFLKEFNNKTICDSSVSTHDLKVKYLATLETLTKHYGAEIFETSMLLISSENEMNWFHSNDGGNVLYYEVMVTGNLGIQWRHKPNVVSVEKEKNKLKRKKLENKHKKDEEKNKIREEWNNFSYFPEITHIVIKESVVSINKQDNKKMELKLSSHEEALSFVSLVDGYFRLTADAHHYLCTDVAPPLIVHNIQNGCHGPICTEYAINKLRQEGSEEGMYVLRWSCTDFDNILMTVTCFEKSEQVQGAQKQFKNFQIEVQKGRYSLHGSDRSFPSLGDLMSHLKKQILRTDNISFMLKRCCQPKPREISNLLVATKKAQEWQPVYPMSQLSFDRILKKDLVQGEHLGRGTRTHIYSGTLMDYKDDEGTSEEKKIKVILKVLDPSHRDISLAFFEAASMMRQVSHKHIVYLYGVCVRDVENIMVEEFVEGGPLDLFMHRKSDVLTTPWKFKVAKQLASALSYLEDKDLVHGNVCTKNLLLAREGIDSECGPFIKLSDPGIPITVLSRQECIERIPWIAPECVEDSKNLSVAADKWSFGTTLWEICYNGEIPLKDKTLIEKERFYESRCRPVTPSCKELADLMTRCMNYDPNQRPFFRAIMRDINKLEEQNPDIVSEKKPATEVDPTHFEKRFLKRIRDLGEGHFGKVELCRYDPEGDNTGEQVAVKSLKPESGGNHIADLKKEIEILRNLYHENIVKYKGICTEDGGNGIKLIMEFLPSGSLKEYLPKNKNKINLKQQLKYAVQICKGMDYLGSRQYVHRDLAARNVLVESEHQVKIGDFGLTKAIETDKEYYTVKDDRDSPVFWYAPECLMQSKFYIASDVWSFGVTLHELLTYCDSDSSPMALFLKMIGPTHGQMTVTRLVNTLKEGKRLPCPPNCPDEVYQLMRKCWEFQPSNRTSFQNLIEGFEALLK
T2 sequence (P08684 whole entry): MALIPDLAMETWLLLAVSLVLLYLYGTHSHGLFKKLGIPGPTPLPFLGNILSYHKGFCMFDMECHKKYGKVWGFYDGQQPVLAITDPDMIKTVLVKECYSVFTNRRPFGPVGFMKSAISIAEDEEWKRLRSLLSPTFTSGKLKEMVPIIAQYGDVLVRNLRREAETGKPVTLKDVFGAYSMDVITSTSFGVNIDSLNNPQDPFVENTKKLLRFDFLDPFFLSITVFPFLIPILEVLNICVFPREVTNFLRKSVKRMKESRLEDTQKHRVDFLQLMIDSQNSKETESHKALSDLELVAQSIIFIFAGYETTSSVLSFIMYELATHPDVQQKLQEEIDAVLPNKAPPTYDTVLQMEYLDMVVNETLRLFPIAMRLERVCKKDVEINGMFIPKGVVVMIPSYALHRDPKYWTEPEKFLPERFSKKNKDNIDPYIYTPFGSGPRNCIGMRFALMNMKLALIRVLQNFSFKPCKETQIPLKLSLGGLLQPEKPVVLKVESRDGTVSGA
Sequence of JAK2/JAK1 (P23458 whole entry): as the sequence (P23458 whole entry, one chain of several) above
Sequence of JAK2/JAK1 (O60674 whole entry): as the sequence (O60674 whole entry) above
Sequence of JAK1/TYK2 (P23458 whole entry): as the sequence (P23458 whole entry, one chain of several) above
Sequence of JAK1/TYK2 (P29597 whole entry): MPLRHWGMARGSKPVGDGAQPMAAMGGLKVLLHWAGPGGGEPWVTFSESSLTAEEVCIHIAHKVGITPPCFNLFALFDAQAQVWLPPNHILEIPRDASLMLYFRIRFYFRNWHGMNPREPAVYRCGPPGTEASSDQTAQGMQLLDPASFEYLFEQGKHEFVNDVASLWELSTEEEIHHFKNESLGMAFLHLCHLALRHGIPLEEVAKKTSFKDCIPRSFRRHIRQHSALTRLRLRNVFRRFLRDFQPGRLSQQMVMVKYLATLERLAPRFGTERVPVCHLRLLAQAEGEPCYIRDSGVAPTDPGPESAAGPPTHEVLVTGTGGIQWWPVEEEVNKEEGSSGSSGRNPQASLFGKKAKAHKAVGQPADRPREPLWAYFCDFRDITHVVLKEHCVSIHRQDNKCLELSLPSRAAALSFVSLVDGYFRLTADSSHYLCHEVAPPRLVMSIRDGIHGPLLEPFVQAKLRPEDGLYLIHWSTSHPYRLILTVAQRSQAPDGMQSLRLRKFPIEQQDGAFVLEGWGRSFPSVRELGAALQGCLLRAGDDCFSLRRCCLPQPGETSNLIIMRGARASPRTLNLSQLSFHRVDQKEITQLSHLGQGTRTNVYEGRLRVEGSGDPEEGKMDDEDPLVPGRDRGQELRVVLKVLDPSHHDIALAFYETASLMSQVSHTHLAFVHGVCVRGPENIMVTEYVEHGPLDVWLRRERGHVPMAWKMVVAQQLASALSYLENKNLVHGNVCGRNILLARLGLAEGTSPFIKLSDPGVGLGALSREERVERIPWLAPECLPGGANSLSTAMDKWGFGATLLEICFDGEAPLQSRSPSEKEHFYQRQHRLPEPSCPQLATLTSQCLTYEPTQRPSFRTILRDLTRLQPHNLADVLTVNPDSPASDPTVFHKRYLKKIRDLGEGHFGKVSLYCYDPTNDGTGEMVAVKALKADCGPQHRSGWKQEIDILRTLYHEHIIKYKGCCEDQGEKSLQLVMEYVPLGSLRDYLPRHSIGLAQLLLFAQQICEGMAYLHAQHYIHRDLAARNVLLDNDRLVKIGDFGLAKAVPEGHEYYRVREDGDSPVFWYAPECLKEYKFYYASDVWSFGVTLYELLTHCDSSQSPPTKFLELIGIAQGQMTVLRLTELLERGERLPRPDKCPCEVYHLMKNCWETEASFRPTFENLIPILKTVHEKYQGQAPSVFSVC
Sequence of Tyrosine-protein kinase JAK1 (P23458 whole entry, the tested form may be a part): as the sequence (P23458 whole entry, one chain of several) above
Sequence of JAK2/TYK2 (O60674 whole entry): as the sequence (O60674 whole entry) above
Sequence of JAK2/TYK2 (P29597 whole entry): as the sequence (P29597 whole entry) above
Sequence of Non-receptor tyrosine-protein kinase TYK2 (P29597 whole entry, the tested form may be a part): as the sequence (P29597 whole entry) above

Row | SMILES | IC50 (Cytochrome P450 3A4 [4]) | IC50 (Cytochrome P450 3A4 [5]) | inhibition in vivo at 40 mg/kg [1] | IC50 [2] | inhibition in vivo at 5 mg/kg [3] | also measured
1 | COc1cc(Nc2ncc(C)c(Nc3ccc4oc(=O)[nH]c4c3)n2)cc(C)c1C | > 10000 nM | 2900 nM | 90% | 1110 nM | 68% | Ki (Cytochrome P450 1A2): 6000 nM
2 | COc1cc(CF)cc(Nc2ncc(C)c(Nc3ccc4oc(=O)[nH]c4c3)n2)c1 | > 10000 nM | 8000 nM |  | 170 nM |  | 
3 | COc1cc(Nc2ncc(C)c(Nc3ccc4oc(=O)[nH]c4c3)n2)cc(C)c1F |  |  |  |  |  | Ratio IC50 (Homo sapiens): 24; inhibition [6]: < 50%
4 | Cc1cnc(Nc2ccc(N3CCN(C)CC3)nc2)nc1Nc1ccc2oc(=O)[nH]c2c1 | > 10000 nM | 4000 nM | 82% | 84 nM | 30% | IC50 (JAK3/JAK1 [7]): 20 nM; fraction unbound [8]: 0.16; fraction unbound [9]: 0.19; Ratio IC50 (Homo sapiens): 4; bioavailability [10]: 4%
5 | COc1cc(Nc2ncc(C)c(Nc3ccc4oc(=O)[nH]c4c3)n2)cc(C)c1F.O=S(=O)(O)c1ccccc1 |  |  |  |  |  | bioavailability [10]: 37%; AUC [11]: 507 ng·h/mL; inhibition in vivo at 50 mg/kg (Rattus norvegicus [12]): 98%; inhibition in vivo at 100 mg/kg (Rattus norvegicus [13]): 98%; inhibition in vivo at 25 mg/kg (Rattus norvegicus [14]): 75%
6 | COc1cc(Nc2ncc(C)c(Nc3ccc4oc(=O)[nH]c4c3)n2)cc(C(F)(F)F)c1 | 7200 nM | 500 nM | 90% | 1690 nM | 78% | 
7 | Cc1cnc(Nc2ccc(C#N)cc2)nc1Nc1ccc2oc(=O)[nH]c2c1 |  |  | 0% |  |  | 
8 | COc1cc(C)cc(Nc2ncc(C)c(Nc3ccc4oc(=O)[nH]c4c3)n2)c1 | > 10000 nM | > 10000 nM | 91% | 354 nM | 55% | 
9 | COc1cc(Nc2ncc(C)c(Nc3ccc4oc(=O)[nH]c4c3)n2)cc(C)c1F [IFIDANCITINIB] | > 10000 nM | > 10000 nM | 92% | 490 nM | 43% | IC50 (JAK3/JAK1 [7]): 20 nM; Ki (Cytochrome P450 1A2): 1000 nM; IC50 [15]: 2.1 nM; IC50 [16]: 12 nM; IC50 [17]: 923 nM; IC50 [18]: 12 nM; IC50 (JAK3/JAK1 [19]): 20 nM; IC50 (JAK1/TYK2): 8 nM; IC50 [20]: 915 nM; IC50 (JAK2/TYK2): 1190 nM; IC50 (JAK2/JAK1): 417 nM; inhibition in vivo at 20 mg/kg [21]: 94%; inhibition in vivo at 10 mg/kg [22]: 75%; inhibition in vivo at 2.5 mg/kg [23]: 8%; bioavailability [10]: 28%; clearance [24]: 47 mL/min/kg; IC50 (JAK3/JAK1 [25]): 451 nM

More lines, main results first:

Row | IC50 (Cytochrome P450 3A4 [4]) | IC50 (Cytochrome P450 3A4 [5]) | SMILES | inhibition in vivo at 40 mg/kg [1] | IC50 [2] | inhibition in vivo at 5 mg/kg [3] | also measured
10 | > 10000 nM | 2700 nM | COc1cc(Nc2ncc(C)c(Nc3ccc4oc(=O)[nH]c4c3)n2)cc(C)c1OC |  | 42 nM |  | 
11 | > 10000 nM | 1100 nM | COc1cc(Nc2ncc(C)c(Nc3ccc4oc(=O)[nH]c4c3)n2)cc(OC)c1OC | 88% | 81 nM |  | IC50 (JAK3/JAK1 [7]): 26 nM; Ratio IC50 (Homo sapiens): 3
